Values belong to the molecule of their own block, whether it stands above or below them.
Test system: K12877-001-R-J1-PDC complex spheroid viability
Assay: Anticancer human tumor K12877-001-R-J1-PDC patient-derived lung adenocarcinoma cell line growth inhibition [RAS]
Conditions: for IC50: curve of first compound; for viability, T/C: stronger effect = lower value
Summary of the method: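 Tumour cells grown as complex spheroids with HUVEC endothelial cells and mesenchymal stem cells, treated with RAS pathway inhibitor combinations. Each agent spans half-log steps from near clinical Cmax, or 10 microM where Cmax is unknown.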

[1] = second compound 0.000949 µM, first compound 0.0316 µM
[2] = second compound 0.000949 µM, first compound 0.1 µM
[3] = second compound 0.000949 µM, first compound 0.316 µM
[4] = second compound 0.000949 µM, first compound 1 µM
[5] = second compound 0.003 µM, first compound 0.0316 µM
[6] = second compound 0.003 µM, first compound 0.1 µM
[7] = second compound 0.003 µM, first compound 0.316 µM
[8] = second compound 0.003 µM, first compound 1 µM
[9] = second compound 0.00949 µM, first compound 0.0316 µM
[10] = second compound 0.00949 µM, first compound 0.1 µM
[11] = second compound 0.00949 µM, first compound 0.316 µM
[12] = second compound 0.00949 µM, first compound 1 µM
[13] = second compound 0.03 µM, first compound 0.0316 µM
[14] = second compound 0.03 µM, first compound 0.1 µM
[15] = second compound 0.03 µM, first compound 0.316 µM
[16] = second compound 0.03 µM, first compound 1 µM
[17] = second compound 0.0949 µM, first compound 0.0316 µM
[18] = second compound 0.0949 µM, first compound 0.1 µM
[19] = second compound 0.0949 µM, first compound 0.316 µM
[20] = second compound 0.0949 µM, first compound 1 µM
[21] = second compound 0.3 µM, first compound 0.0316 µM
[22] = second compound 0.3 µM, first compound 0.1 µM
[23] = second compound 0.3 µM, first compound 0.316 µM
[24] = second compound 0.3 µM, first compound 1 µM
[25] = second compound 0.000949 µM, first compound 0.00316 µM
[26] = second compound 0.000949 µM, first compound 0.01 µM
[27] = second compound 0.003 µM, first compound 0.00316 µM
[28] = second compound 0.003 µM, first compound 0.01 µM
[29] = second compound 0.00949 µM, first compound 0.00316 µM
[30] = second compound 0.00949 µM, first compound 0.01 µM
[31] = second compound 0.03 µM, first compound 0.00316 µM
[32] = second compound 0.03 µM, first compound 0.01 µM
[33] = second compound 0.0949 µM, first compound 0.00316 µM
[34] = second compound 0.0949 µM, first compound 0.01 µM
[35] = second compound 0.3 µM, first compound 0.00316 µM
[36] = second compound 0.3 µM, first compound 0.01 µM
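Note: spheroids exposed to agents for one week before readout.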
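Throughout, for viability, T/C: tumour cells co-cultured with HUVEC and mesenchymal stem cells in spheroids.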

- IC50 (second compound 0.000949 µM): 1.26 µM
- IC50 (second compound 0.003 µM): 1.28 µM
- IC50 (second compound 0.00949 µM): 1.43 µM
- IC50 (second compound 0.03 µM): 0.956 µM
- IC50 (second compound 0.0949 µM): 0.488 µM
- IC50 (second compound 0.3 µM): 0.17 µM
SMILES: CC(C)NCC(C(=O)N1CCN(c2ncnc3c2C(C)CC3O)CC1)c1ccc(Cl)cc1 (stereo unspecified) + CCn1c(-c2cccnc2C(C)OC)c2c3cc(ccc31)N1CCOC(CC(NC(=O)C(C(C)C)N(C)C(=O)C3(F)CCN(C(=O)C#CC(C)(C)N(C)C)CC3)C(=O)N3CCCC(N3)C(=O)OCC(C)(C)C2)C1
- viability, T/C [1]: 88.5%
- viability, T/C [2]: 76.6%
- viability, T/C [3]: 80.5%
- viability, T/C [4]: 55.5%
- viability, T/C (second compound 0.000949 µM, first compound 3.16 µM): 26.7%
- viability, T/C (second compound 0.000949 µM, first compound 10 µM): 18.3%
- viability, T/C [5]: 80.6%
- viability, T/C [6]: 88%
- viability, T/C [7]: 67.1%
- viability, T/C [8]: 60.6%
- viability, T/C (second compound 0.003 µM, first compound 3.16 µM): 26.5%
- viability, T/C (second compound 0.003 µM, first compound 10 µM): 19.6%
- viability, T/C [9]: 78.5%
- viability, T/C [10]: 68.5%
- viability, T/C [11]: 82.8%
- viability, T/C [12]: 58.7%
- viability, T/C (second compound 0.00949 µM, first compound 3.16 µM): 27.9%
- viability, T/C (second compound 0.00949 µM, first compound 10 µM): 16%
- viability, T/C [13]: 75.7%
- viability, T/C [14]: 68.9%
- viability, T/C [15]: 81.6%
- viability, T/C [16]: 49%
- viability, T/C (second compound 0.03 µM, first compound 3.16 µM): 26.8%
- viability, T/C (second compound 0.03 µM, first compound 10 µM): 15.9%
- viability, T/C [17]: 72.7%
- viability, T/C [18]: 73.5%
- viability, T/C [19]: 51.8%
- viability, T/C [20]: 41.5%
- viability, T/C (second compound 0.0949 µM, first compound 3.16 µM): 23.1%
- viability, T/C (second compound 0.0949 µM, first compound 10 µM): 12.1%
- viability, T/C [21]: 57.8%
- viability, T/C [22]: 52.8%
- viability, T/C [23]: 46.3%
- viability, T/C [24]: 23.5%
- viability, T/C (second compound 0.3 µM, first compound 3.16 µM): 19%
- viability, T/C (second compound 0.3 µM, first compound 10 µM): 10.6%

- IC50 (second compound 0.000949 µM): > 1 µM
- IC50 (second compound 0.003 µM): 0.803 µM
- IC50 (second compound 0.00949 µM): 0.578 µM
- IC50 (second compound 0.03 µM): 0.469 µM
- IC50 (second compound 0.0949 µM): 0.516 µM
- IC50 (second compound 0.3 µM): 0.376 µM
SMILES: CCN1CCN(Cc2ccc(Nc3ncc(F)c(-c4cc(F)c5nc(C)n(C(C)C)c5c4)n3)nc2)CC1 + CCn1c(-c2cc(N3CCN(C)CC3)cnc2C(C)OC)c2c3cc(ccc31)-c1csc(n1)CC(NC(=O)C1CC1C)C(=O)N1CCCC(N1)C(=O)OCC(C)(C)C2
- viability, T/C [25]: 79.9%
- viability, T/C [26]: 84.1%
- viability, T/C [1]: 85%
- viability, T/C [2]: 92.5%
- viability, T/C [3]: 86.8%
- viability, T/C [4]: 73.2%
- viability, T/C [27]: 73.7%
- viability, T/C [28]: 72.1%
- viability, T/C [5]: 72.7%
- viability, T/C [6]: 69.3%
- viability, T/C [7]: 70.2%
- viability, T/C [8]: 45.3%
- viability, T/C [29]: 61.7%
- viability, T/C [30]: 61.3%
- viability, T/C [9]: 68.9%
- viability, T/C [10]: 70.8%
- viability, T/C [11]: 72%
- viability, T/C [12]: 34.6%
- viability, T/C [31]: 81.7%
- viability, T/C [32]: 86.8%
- viability, T/C [13]: 74.3%
- viability, T/C [14]: 89.8%
- viability, T/C [15]: 61.5%
- viability, T/C [16]: 28.1%
- viability, T/C [33]: 106%
- viability, T/C [34]: 97.9%
- viability, T/C [17]: 99.6%
- viability, T/C [18]: 86.5%
- viability, T/C [19]: 63%
- viability, T/C [20]: 32.3%
- viability, T/C [35]: 97%
- viability, T/C [36]: 86.2%
- viability, T/C [21]: 86.5%
- viability, T/C [22]: 76.2%
- viability, T/C [23]: 53.1%
- viability, T/C [24]: 26.1%

- IC50 (second compound 0.000949 µM): 0.286 µM
- IC50 (second compound 0.003 µM): 0.229 µM
- IC50 (second compound 0.00949 µM): 0.154 µM
- IC50 (second compound 0.03 µM): 0.146 µM
- IC50 (second compound 0.0949 µM): 0.132 µM
- IC50 (second compound 0.3 µM): 0.16 µM
SMILES: CCN1CCN(Cc2ccc(Nc3ncc(F)c(-c4cc(F)c5nc(C)n(C(C)C)c5c4)n3)nc2)CC1 + CCn1c(-c2cccnc2C(C)OC)c2c3cc(ccc31)N1CCOC(CC(NC(=O)C(C(C)C)N(C)C(=O)C3(F)CCN(C(=O)C#CC(C)(C)N(C)C)CC3)C(=O)N3CCCC(N3)C(=O)OCC(C)(C)C2)C1
- viability, T/C [25]: 73.5%
- viability, T/C [26]: 80.4%
- viability, T/C [1]: 74.3%
- viability, T/C [2]: 61.5%
- viability, T/C [3]: 50.1%
- viability, T/C [4]: 31.5%
- viability, T/C [27]: 71.8%
- viability, T/C [28]: 76.9%
- viability, T/C [5]: 68.8%
- viability, T/C [6]: 69.9%
- viability, T/C [7]: 42.3%
- viability, T/C [8]: 28.9%
- viability, T/C [29]: 66%
- viability, T/C [30]: 77.1%
- viability, T/C [9]: 66.5%
- viability, T/C [10]: 56.8%
- viability, T/C [11]: 39.2%
- viability, T/C [12]: 34%
- viability, T/C [31]: 74.2%
- viability, T/C [32]: 76.5%
- viability, T/C [13]: 69.6%
- viability, T/C [14]: 51.8%
- viability, T/C [15]: 45.4%
- viability, T/C [16]: 36.3%
- viability, T/C [33]: 76.8%
- viability, T/C [34]: 65.5%
- viability, T/C [17]: 58.5%
- viability, T/C [18]: 61.6%
- viability, T/C [19]: 36.4%
- viability, T/C [20]: 25.4%
- viability, T/C [35]: 67.2%
- viability, T/C [36]: 59.1%
- viability, T/C [21]: 59.3%
- viability, T/C [22]: 58%
- viability, T/C [23]: 39.3%
- viability, T/C [24]: 27.4%

Source: PubChem BioAssay AID2060894 (Molecular Pharmacology Branch, DTP, NCI, 2025)
